Measured values published in ChEMBL document CHEMBL1127278, “N-chloromethyl quinuclidinium derivatives: A new class of irreversible ligands for 5-HT3 receptors” (Bioorg Med Chem Lett, 1994).

Target: T1, Serotonin 3 (5-HT3) receptor (Rattus norvegicus, UniProt P35563+Q9JJ16)
T1 sequence (P35563 whole entry): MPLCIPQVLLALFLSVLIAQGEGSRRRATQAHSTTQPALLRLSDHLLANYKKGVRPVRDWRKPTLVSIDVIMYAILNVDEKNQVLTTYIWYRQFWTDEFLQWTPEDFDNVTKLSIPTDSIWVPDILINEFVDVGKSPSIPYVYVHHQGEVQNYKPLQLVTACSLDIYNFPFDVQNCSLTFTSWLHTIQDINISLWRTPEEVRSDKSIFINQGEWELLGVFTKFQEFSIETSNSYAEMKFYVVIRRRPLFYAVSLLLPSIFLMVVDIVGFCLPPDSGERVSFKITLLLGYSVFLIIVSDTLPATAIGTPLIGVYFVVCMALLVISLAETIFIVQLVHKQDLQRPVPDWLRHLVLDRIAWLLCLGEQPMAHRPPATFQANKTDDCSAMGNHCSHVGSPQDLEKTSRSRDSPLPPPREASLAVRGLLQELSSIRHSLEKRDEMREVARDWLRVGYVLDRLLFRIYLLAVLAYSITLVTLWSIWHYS
T1 sequence (Q9JJ16 whole entry): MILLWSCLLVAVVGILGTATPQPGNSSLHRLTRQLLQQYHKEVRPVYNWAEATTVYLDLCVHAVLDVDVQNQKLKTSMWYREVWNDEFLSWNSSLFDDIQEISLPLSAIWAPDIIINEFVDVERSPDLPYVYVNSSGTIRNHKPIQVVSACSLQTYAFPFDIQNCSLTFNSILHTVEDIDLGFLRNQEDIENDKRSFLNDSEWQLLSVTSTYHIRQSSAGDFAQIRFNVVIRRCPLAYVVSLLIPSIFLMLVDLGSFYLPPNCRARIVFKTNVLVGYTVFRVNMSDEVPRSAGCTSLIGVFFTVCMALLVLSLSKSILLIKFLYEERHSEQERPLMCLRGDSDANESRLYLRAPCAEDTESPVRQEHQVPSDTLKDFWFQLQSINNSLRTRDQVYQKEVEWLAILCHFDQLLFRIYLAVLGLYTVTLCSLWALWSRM
Test: Binding affinity to 5-hydroxytryptamine 3 receptor in rat entorhinal cortex using [3H]-BRL 43694 as radioligand

Structure (SMILES)	Ki [nM]
Nc1ccc2c3c(cccc13)C(=O)N([C@@H]1C[N+]3(CCl)CCC1CC3)C2=O	328
COc1cc(N)c(Cl)cc1C(=O)N[C@@H]1C[N+]2(CCl)CCC1CC2	14.8
Nc1ccc2c3c(cccc13)C(=O)N([C@H]1C[N+]3(CCl)CCC1CC3)C2=O	0.35
COc1cc(N)c(Cl)cc1C(=O)N[C@H]1C[N+]2(CCl)CCC1CC2	20.1
